Values after ≈ are worked out from the molar mass of the structure shown.
Tests used:
[1] = Kinetic Solubility Assay; format: physicochemical; conditions: aqueous buffer, kinetic from dmso stock, kinetic solubility in PBS (pH 4.0 and pH 7.4 in method; pH of table values not stated), RT
Description: Stock solutions of test compounds are prepared in DMSO at the concentration of 10 mM, and a stock solution of control compound is prepared in DMSO at the concentration of 30 mM. Diclofenac is used as positive control in the assay. 30 μL stock solution of each compound is placed into their a 96-well rack, followed by adding 970 μL of PBS at pH 4.0 and pH 7.4 into each vial of the cap-less solubility sample plate. This study is performed in duplicate. One stir stick is added to each vial and then vials are sealed using a molded PTDE/SIL 96-Well Plate Cover. The solubility sample plate is transferred to the Thermomixer comfort plate shaker and incubated at RT for 2 hours with shaking at 1100 rpm. After 2 hours incubation, stir sticks are removed using a big magnet and all samples from the solubility sample plate are transferred into the filter plate. All the samples are filtered by vacuum manifold. The filtered samples are diluted with methanol. Samples are analyzed by LC-MS/MS and quantified against a standard of known concentration in DMSO using LC coupled with Mass spectral peak identification and quantitation. The solubility values of the test compounds are calculated as follows, wherein INJ VOL is injection volume, DF is dilution factor, and STD is standard: […]

[2] = molecular target: T1, JAK3 (Homo sapiens, UniProt P52333); assay: JAK Family Selectivity Assay: JAK3 vs JAK2 binding affinity; conditions: Kd JAK3 over Kd JAK2
T1 construct: made in house; host or cells: T7 phage in BL21-derived E. coli or HEK-293 cells
T1 sequence (P52333 1-1124): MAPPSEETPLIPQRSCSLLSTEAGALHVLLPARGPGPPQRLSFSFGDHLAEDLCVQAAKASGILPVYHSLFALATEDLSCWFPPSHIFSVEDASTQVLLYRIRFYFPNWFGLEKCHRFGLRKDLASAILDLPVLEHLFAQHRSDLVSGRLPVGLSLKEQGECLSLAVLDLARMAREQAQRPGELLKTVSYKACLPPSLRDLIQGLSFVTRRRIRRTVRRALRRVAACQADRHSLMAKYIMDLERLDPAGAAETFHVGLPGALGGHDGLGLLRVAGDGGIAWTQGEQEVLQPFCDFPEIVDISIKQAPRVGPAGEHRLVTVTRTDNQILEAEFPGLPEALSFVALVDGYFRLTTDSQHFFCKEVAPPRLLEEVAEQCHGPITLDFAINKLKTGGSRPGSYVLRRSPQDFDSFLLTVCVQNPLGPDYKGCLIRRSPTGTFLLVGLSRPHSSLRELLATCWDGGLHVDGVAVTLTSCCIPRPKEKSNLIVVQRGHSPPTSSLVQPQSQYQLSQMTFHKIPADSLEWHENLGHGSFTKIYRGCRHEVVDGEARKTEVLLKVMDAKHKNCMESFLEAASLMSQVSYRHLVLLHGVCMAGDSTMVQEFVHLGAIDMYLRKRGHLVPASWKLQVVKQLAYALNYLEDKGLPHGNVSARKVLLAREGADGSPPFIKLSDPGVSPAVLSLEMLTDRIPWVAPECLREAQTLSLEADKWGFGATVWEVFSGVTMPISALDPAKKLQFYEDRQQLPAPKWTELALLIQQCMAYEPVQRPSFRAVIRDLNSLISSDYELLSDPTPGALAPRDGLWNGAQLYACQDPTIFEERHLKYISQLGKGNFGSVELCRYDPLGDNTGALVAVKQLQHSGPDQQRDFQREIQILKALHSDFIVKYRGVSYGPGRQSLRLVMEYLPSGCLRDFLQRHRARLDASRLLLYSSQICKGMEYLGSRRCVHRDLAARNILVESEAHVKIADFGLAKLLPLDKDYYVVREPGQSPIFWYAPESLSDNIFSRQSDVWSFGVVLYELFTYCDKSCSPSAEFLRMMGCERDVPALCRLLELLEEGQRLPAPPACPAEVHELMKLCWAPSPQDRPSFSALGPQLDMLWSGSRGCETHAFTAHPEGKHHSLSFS
Description: Provided compounds are evaluated for selectivity by comparing their JAK2 binding affinity (Kd) in the above JAK2 Binding Assay with their binding affinity (Kd) for one or more other kinases. Binding affinity for other kinases is determined as follows: Kinase-tagged T7 phage strains are prepared in an E. coli host derived from the BL21 strain. E. coli are grown to log-phase and infected with T7 phage and incubated with shaking at 32° C. until lysis. The lysates are centrifuged and filtered to remove cell debris. The remaining kinases are produced in HEK-293 cells and subsequently tagged with DNA for qPCR detection. Streptavidin-coated magnetic beads are treated with biotinylated small molecule ligands for 30 minutes at room temperature to generate affinity resins for kinase assays. The liganded beads are blocked with excess biotin and washed with blocking buffer (SeaBlock (Pierce), 1% BSA, 0.05% Tween 20, 1 mM DTT) to remove unbound ligand and to reduce non-specific binding. Binding reactions are assembled by combining kinases, liganded affinity beads, and test compounds in 1× binding buffer (20% SeaBlock, 0.17×PBS, 0.05% Tween 20, 6 mM DTT). Test compounds are prepared as 111× stocks in 100% DMSO. Kds are determined using an 11-point 3-fold compound dilution series with three DMSO control points. All compounds for Kd measurements are distributed by acoustic transfer (non-contact dispensing) in 100% DMSO. The compounds are then diluted directly into the assays such that the final concentration of DMSO is 0.9%. All reactions are performed in polypropylene 384-well plate. Each has a final volume of 0.02 ml. The assay plates are incubated at room temperature with shaking for 1 hour and the affinity beads are washed with wash buffer (1×PBS, 0.05% Tween 20). The beads are then re-suspended in elution buffer (1× PBS, 0.05% Tween 20, 0.5 μM non-biotinylated affinity ligand) and incubated at room temperature with shaking for 30 minutes. The kinase concentration in the eluates is measured by qPCR. […] In some embodiments, provided compounds may be JAK2-selective over one or more of the following kinases: JAK1, JAK3, and Tyk2.

## COCCOC(=O)Nc1cc(Oc2cnc3nc(Nc4cc5n(n4)CCC54CCC4)n(C)c3c2C#N)ccn1 [Example I-62, 2-methoxyethyl(4-((7-cyano-2-((5′,6′-dihydrospiro[cyclobutane-1,4′-pyrrolo[1,2-b]pyrazol]-2′-yl)amino)-1-methyl-1H-imidazo[4,5-b]pyridin-6-yl)oxy)pyridin-2-yl)carbamate]
[1]
  solubility at 2 h: 0.1 to 9 µM (≈ 0.053 to 4.77 µg/mL)
[2]
  JAK3/JAK2 Kd/Kd ratio: A (Kd/Kd ratio ≥1000)

## COCC(=O)Nc1cc(Oc2cnc3nc(Nc4cc(C(F)(F)F)cn(C)c4=O)n(C)c3c2Cl)ccn1 [Example I-75, N-(4-((7-chloro-1-methyl-2-((1-methyl-2-oxo-5-(trifluoromethyl)-1,2-dihydropyridin-3-yl)amino)-1H-imidazo[4,5-b]pyridin-6-yl)oxy)pyridin-2-yl)-2-methoxyacetamide]
[1]
  solubility at 2 h: 0.1 to 9 µM (≈ 0.0538 to 4.84 µg/mL)
[2]
  JAK3/JAK2 Kd/Kd ratio: A (Kd/Kd ratio ≥1000)

## COCC(=O)Nc1cc(Oc2cnc3nc(Nc4cc(C(F)(F)F)cn(C)c4=O)n(C)c3c2C#N)ccn1 [Example I-79, N-(4-((7-cyano-1-methyl-2-((1-methyl-2-oxo-5-(trifluoromethyl)-1,2-dihydropyridin-3-yl)amino)-1H-imidazo[4,5-b]pyridin-6-yl)oxy)pyridin-2-yl)-2-methoxyacetamide]
[1]
  solubility at 2 h: 0.1 to 9 µM (≈ 0.0528 to 4.76 µg/mL)
[2]
  JAK3/JAK2 Kd/Kd ratio: A (Kd/Kd ratio ≥1000)

## CC(=O)Nc1cc(Oc2cnc3nc(Nc4cc(C(F)(F)F)cn(C)c4=O)n(C)c3c2Cl)c(F)cn1 [Example I-88, N-(4-((7-chloro-1-methyl-2-((1-methyl-2-oxo-5-(trifluoromethyl)-1,2-dihydropyridin-3-yl)amino)-1H-imidazo[4,5-b]pyridin-6-yl)oxy)-5-fluoropyridin-2-yl)acetamide]
[1]
  solubility at 2 h: 0.1 to 9 µM (≈ 0.0526 to 4.73 µg/mL)
[2]
  JAK3/JAK2 Kd/Kd ratio: A (Kd/Kd ratio ≥1000)

## Cn1c(Nc2cc3n(n2)CCC32CCC2)nc2ncc(Oc3ccnc(NC(=O)C4CC4)c3)c(C#N)c21 [Example I-122, N-(4-((7-cyano-2-((5′,6′-dihydrospiro[cyclobutane-1,4′-pyrrolo[1,2-b]pyrazol]-2′-yl)amino)-1-methyl-1H-imidazo[4,5-b]pyridin-6-yl)oxy)pyridin-2-yl)cyclopropanecarboxamide]
[1]
  solubility at 2 h: 0.1 to 9 µM (≈ 0.0496 to 4.46 µg/mL)
[2]
  JAK3/JAK2 Kd/Kd ratio: B (Kd/Kd ratio <1000 and ≥300)

## CCN1CCN(Cc2ccc(Nc3nc4ccc(Oc5ccnc(NC(C)=O)c5)cc4n3C)cc2C(F)(F)F)CC1 [Example R-1, reference compound]
[1]
  solubility at 2 h: 100 to 200 µM (≈ 56.8 to 114 µg/mL)
[2]
  JAK3/JAK2 Kd/Kd ratio: A (Kd/Kd ratio ≥1000)

From patent publication US11970494B2, “6-heteroaryloxy benzimidazoles and azabenzimidazoles as JAK2 inhibitors” (Ajax Therapeutics, Inc., priority 2021, dated 2024)
